Like-named read-outs stand apart in the source and are kept apart here.
Tests used:
[1] = system: mixed lymphocyte reaction; assay: Mixed lymphocyte reaction (pig); format: cell-based
From the text: Mini-swine was recently selected to validate the concept that blocking the voltage activated K+ channels (Kv1.3) is a target for immunomodulation.

pig mononuclear cells = assay: In vitro PMA/ionomycin induced proliferation of mononuclear cells ([3H]thymidine incorporation); format: cell-based
mononuclear cells = assay: Ex vivo PMA/ionomycin-induced proliferation of mononuclear cells after in vivo infusion; parameters: species or system Yucatan mini-pig; settings: 25 µg in 30 ml of vehicle infused over 2.5 h
[2] = Blood pressure and heart rate during infusion; format: in vivo, Yucatan mini-pig; settings: during infusion of 25 µg over 2.5 h
Method: A Yucatan mini-pig received 25 µg of margatoxin in 30 ml of vehicle (5% autologous serum in 1:1 saline to PBS solution) over 2.5 h. […] Margatoxin was undetectable in the plasma in 24 h. Plasma level of MgTX was determined in a competition binding assay, by its inhibition of ^125I-labeled MgTX binding to Kv1.3 channels present in isolated plasma membranes. […] Similar pharmokinetic study was performed six times, with good correlations between high plasma levels of margatoxin and the lower response to PMA/ION. Yucatan mini-pigs receiving vehicle had no significant fluctuation of responses to PMA/ION. Therefore, this ex vivo test provides an assessment of the in vivo biological effect of margatoxin and can also be used to study the immunosuppressant effects of other ion channel blockers.

[3] = system: mixed lymphocyte reaction; settings: mouse; cited from earlier work
[4] = 25 µg infused over 2.5 h
[5] = system: mixed lymphocyte reaction; settings: rat; cited from earlier work
[6] = system: mixed lymphocyte reaction; settings: rabbit; cited from earlier work
[7] = system: mixed lymphocyte reaction; settings: guinea pig; cited from earlier work
[8] = biological target: T1, Kv1.3 channels of the pig T cells (Sus scrofa, UniProt A0A5G2QN06); settings: electrophysiological analyses, unpublished communication from Reid Leonard; cited from earlier work
T1 construct: endogenous in cells; host or cells: pig T cells
T1 sequence (A0A5G2QN06 1-588): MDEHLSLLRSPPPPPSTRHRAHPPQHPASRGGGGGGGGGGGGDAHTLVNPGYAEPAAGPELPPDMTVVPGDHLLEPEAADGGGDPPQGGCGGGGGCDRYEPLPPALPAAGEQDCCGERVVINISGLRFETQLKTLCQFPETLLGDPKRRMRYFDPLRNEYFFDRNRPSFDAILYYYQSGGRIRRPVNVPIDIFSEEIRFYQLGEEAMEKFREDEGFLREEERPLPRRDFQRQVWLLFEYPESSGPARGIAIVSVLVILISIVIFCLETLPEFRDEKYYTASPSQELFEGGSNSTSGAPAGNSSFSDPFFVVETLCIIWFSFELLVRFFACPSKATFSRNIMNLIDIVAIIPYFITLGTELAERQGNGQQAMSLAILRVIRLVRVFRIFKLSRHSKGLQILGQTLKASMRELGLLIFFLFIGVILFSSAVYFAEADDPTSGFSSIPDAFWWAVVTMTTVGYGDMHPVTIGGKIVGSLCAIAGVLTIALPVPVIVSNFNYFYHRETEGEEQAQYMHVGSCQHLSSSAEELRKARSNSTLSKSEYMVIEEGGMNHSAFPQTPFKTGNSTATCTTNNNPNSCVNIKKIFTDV

Substance: Margatoxin
- inhibition of the mixed lymphocyte reaction [1]: inhibit
- PMA/ionomycin (ION) induced proliferation (pig mononuclear cells; pig mononuclear cells, in vitro): equally inhibited
- suppression of the proliferative response to PMA/ION (pig mononuclear cells; whole blood spiked with Margatoxin): significant suppression
- Unresponsiveness to PMA/ION, duration sustained post-infusion (mononuclear cells): 4.5 h
- Unresponsiveness to PMA/ION, time of maximum (mononuclear cells): maximal at the end of infusion
- rise in blood pressure [2]: no significant rise
- rise in heart rate [2]: no significant rise
- inhibition of the mixed lymphocyte reaction [3]: not inhibited
- Plasma level ([4]; in 24 h): undetectable
- half-life ([4]; plasma): about 2 h
- Cmax ([4]; read-out: Plasma level, peak, at the end of infusion): 0.6 nM
- concentration ([4]; read-out: Plasma level, at 4.5 h post-infusion): 0.1 nM
- inhibition of the mixed lymphocyte reaction [5]: not inhibited
- inhibition of the mixed lymphocyte reaction [6]: not inhibited
- inhibition of the mixed lymphocyte reaction [7]: not inhibited
- block of the Kv1.3 channels [8]: block

— patent EP0851766B1, “METHOD FOR ANALYZING THE IMMUNOS[…] OF ION CHANNEL BLOCKERS USING THE MINI-PIG” (MERCK & CO., INC., priority 1995, dated 1997)
